# Results as given in ChEMBL document CHEMBL1134671, “Novel lead generation through hypothetical pharmacophore three-dimensional database searching: discovery of isoflavonoids as nonsteroidal inhibitors of rat 5 alpha-reductase” (J Med Chem, 2001).
# Target: T1, Steroid 5-alpha-reductase (Rattus norvegicus, UniProt P24008+P31214)
# T1 sequence (P24008 whole entry): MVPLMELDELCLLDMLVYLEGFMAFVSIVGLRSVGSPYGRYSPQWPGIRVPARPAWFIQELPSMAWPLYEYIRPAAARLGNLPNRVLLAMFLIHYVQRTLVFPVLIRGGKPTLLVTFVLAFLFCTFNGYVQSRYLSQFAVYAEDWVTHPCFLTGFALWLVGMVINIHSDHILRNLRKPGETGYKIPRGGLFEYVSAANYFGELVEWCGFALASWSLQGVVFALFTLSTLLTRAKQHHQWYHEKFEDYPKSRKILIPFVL
# T1 sequence (P31214 whole entry): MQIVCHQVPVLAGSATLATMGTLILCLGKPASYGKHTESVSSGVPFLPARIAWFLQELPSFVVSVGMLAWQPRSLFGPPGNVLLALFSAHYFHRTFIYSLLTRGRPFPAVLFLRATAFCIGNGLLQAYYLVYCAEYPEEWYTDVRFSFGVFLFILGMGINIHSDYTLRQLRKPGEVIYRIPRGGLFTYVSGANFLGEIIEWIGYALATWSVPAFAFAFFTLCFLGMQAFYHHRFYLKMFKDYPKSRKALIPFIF
# Test: Inhibitory concentration against rat Steroid 5-alpha-reductase
# Assay type: protein assay
row,IC50 [µM],Compound
1,6.9,CC(C)(O)C1Cc2c(O)ccc(-c3coc4cc(O)cc(O)c4c3=O)c2O1 (stereo not drawn)
2,26.2,CC(C)(O)C1Cc2c(ccc(-c3coc4cc5c(c(O)c4c3=O)CC(C(C)(C)O)O5)c2O)O1 (stereo not drawn)
3,15.7,C=C(C)C1Cc2c(cc3occ(-c4ccc(O)cc4O)c(=O)c3c2O)O1 (stereo not drawn)
4,23.1,CC(C)(O)C1Cc2c(ccc(-c3coc4cc(O)cc(O)c4c3=O)c2O)O1 (stereo not drawn)

# Second part, the compound before the results:
row,Compound,IC50 [µM]
1,COc1cc2c(c3occ(-c4ccc(OCc5ccccc5)cc4OCc4ccccc4)c(=O)c13)C=CC(C)(C)O2,27.4
2,COc1cc2c(c3occ(-c4ccc(OCc5ccccc5)cc4OCc4ccccc4)c(=O)c13)C(=O)CC(C)(C)O2,31
3,COc1cc2c(cc1OC)-c1c(oc3c4c(cc(O)c3c1=O)OC(C)(C)C=C4)CO2,48.7
4,COc1ccc(-c2coc3c4c(cc(OC)c3c2=O)OC(C)(C)C=C4)c(OC)c1,30.1
